The source of these data is US11066368B2, “Process for the preparation and particle size reduction of pirfenidone” (Laurus Labs Limited, priority 2016, dated 2021).

Each structure is given as a SMILES string.

The nature of the data set: Particle size (D90) after ethyl acetate / n-heptane anti-solvent crystallisation. Type of data set: physicochemical. On the procedure:
The addition of antisolvent at different temperatures leads to formation of pirfenidone particles with different sizes; for instance: anti solvent addition at 0 to −10° C., preferably at −5±2° C. temperature forms small particles (D90: 50-100μ), at 0 to 10° C., preferably at 7±3° C. temperature forms particles of D90 at 100-150μ and at below 45° C. forms particles of D90 at 250-500μ.
Pirfenidone (83 g) was dissolved in ethyl acetate (425 mL), at 55-65° C., and then added to pre-cooled (−5±2° C.) n-Heptane (425 mL), over a period of 15-20 min, while maintaining temperature below 20° C. The suspension was stirred, at 0-5° C., for 1-2 h; filtered the product washed with chilled ethyl acetate (50 mL). The wet material was dried, at 60° C., under vacuum, for 6-8 h, to afford Pirfenidone as white colored powder. Yield: 65 g, HPLC purity 99.9%, PSD: (D90) 50-100μ.
Pirfenidone (81 g) was dissolved in ethyl acetate (425 mL), at 55-65° C., and then added to pre-cooled (7±3° C.) n-Heptane (425 mL), over a period of 15-20 min, while maintaining temperature below 20° C. The suspension was stirred, at 0-5° C., for 1-2 h; filtered the product washed with chilled ethyl acetate (50 mL). The wet material was dried, at 60° C., under vacuum, for 6-8 h, to afford Pirfenidone as white colored powder Yield: 61 g, HPLC purity 99.9%, PSD: (D90) 100-150μ.
Pirfenidone (81 g) was dissolved in ethyl acetate (500 mL), at 50-55° C., and then added to pre-cooled (8±3° C.) n-Heptane (500 mL), over a period of 15-20 min, while maintaining temperature below 25° C. The suspension was stirred, at 5-10° C., for 1-2 h; filtered the product washed with chilled ethyl acetate (50 mL). The wet material was dried, at 60° C., under vacuum, for 6-8 h, to afford Pirfenidone as white colored powder Yield: 57 g, HPLC purity 99.9%, PSD: (D90) 150-250μ.
Pirfenidone (80 g) was dissolved in ethyl acetate (400 mL), at 55-65° C., and then added to n-Heptane (400 mL), over a period of 5-10 min, while maintaining temperature below 45° C. The suspension was stirred, at 25-30° C., for 1-2 h; filtered the product washed with chilled ethyl acetate (50 mL). The wet material was dried, at 60° C., under vacuum, for 6-8 h, to afford Pirfenidone as white colored powder, Yield: 55 g, HPLC purity 99.9%, PSD: (D90) 250-500μ.

`Cc1ccc(=O)n(-c2ccccc2)c1` [Pirfenidone, 5-methyl-1-phenyl-2-1(H)-pyridone]: the “PSD: (D90)” value (Example 5: ethyl acetate solution, n-heptane anti-solvent at −5±2° C.) is on record as 50-100 μ; the “PSD: (D90)” value (Example 6: ethyl acetate solution, n-heptane anti-solvent at 7±3° C.) is listed as 100-150 μ; the “PSD: (D90)” value (Example 7: ethyl acetate solution, n-heptane anti-solvent at 8±3° C., temperature below 25° C.) is recorded as 150-250 μ; the “PSD: (D90)” value (Example 8: ethyl acetate solution, n-heptane anti-solvent, temperature below 45° C.) is recorded as 250-500 μ.
